Test results published in the supplement of paper PMC4862054.

What was measured:
Conditions in all cases: 72 h
MDA-MB-231 [1] = test system: MDA-MB-231
Procedure: (§1)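 Drug sensitivity and resistance testing (DSRT) of breast cancer cell lines in 384-well plates, 5 concentrations in 10-fold dilutions over a compound-specific 10,000-fold range. After 72 h, cytotoxicity was read by CellTox Green fluorescence and viability by CellTiter-Glo luminescence (multiplexed), normalised to DMSO and benzethonium chloride controls. EC50 is the inflection point of the fitted dose-response curve (bottom asymptote free, so it can be relative for partial curves) and is censored at the highest tested concentration. Rows with DSS 0 (no meaningful response) were excluded.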

CAL-51 = test system: CAL-51
Procedure: as §1

BT-549 = test system: BT-549
Procedure, shortened: (§2)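 For viability, cells received 2.5 µl CellTiter-Blue for 2 h at 37 °C and fluorescence was read at 560/590 nm. Before this, breast cancer cell lines in 20 µl suspension had been incubated for 72 h on 384-well plates pre-loaded with compound dissolved in 5 µl medium. EC50 was obtained from a percent-inhibition dose-response fit censored at the highest concentration, after normalisation of each plate to vehicle and a positive kill control; rows with a zero drug sensitivity score were discarded.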

MFM-223 = test system: MFM-223
Procedure, shortened: as §2

HCC1937 = test system: HCC1937
Procedure, shortened: as §2

MDA-MB-231 [2] = test system: MDA-MB-231; remark: listed apart in the source
Procedure, shortened: as §2

Hs578T = test system: Hs578T
Procedure, shortened: as §2

MDA-MB-468 = test system: MDA-MB-468
Procedure, shortened: as §2

MDA-MB-436 = test system: MDA-MB-436
Procedure, shortened: as §2

BT-474 = test system: BT-474
Procedure, shortened: as §2

SK-BR-3 = test system: SK-BR-3
Procedure, shortened: as §2

CAL-120 = test system: CAL-120
Procedure, shortened: as §2

HDQ-P1 = test system: HDQ-P1
Procedure, shortened: as §2

MDA-MB-453 = test system: MDA-MB-453
Procedure, shortened: as §2

CAL-85-1 = test system: CAL-85-1
Procedure, shortened: as §2

| Structure (SMILES) | EC50, CellTox Green (MDA-MB-231 [1]) | EC50, CellTox Green (CAL-51) | EC50, CellTiter-Blue viability (BT-549) | EC50, CellTiter-Blue viability (MFM-223) | EC50, CellTiter-Blue viability (HCC1937) | EC50, CellTiter-Blue viability (MDA-MB-231 [2]) | EC50, CellTiter-Blue viability (Hs578T) | EC50, CellTiter-Blue viability (MDA-MB-468) | EC50, CellTiter-Blue viability (MDA-MB-436) | EC50, CellTiter-Blue viability (BT-474) | EC50, CellTiter-Blue viability (SK-BR-3) | EC50, CellTiter-Blue viability (CAL-120) | EC50, CellTiter-Blue viability (HDQ-P1) | EC50, CellTiter-Blue viability (MDA-MB-453) | EC50, CellTiter-Blue viability (CAL-85-1) |
| --- | --- | --- | --- | --- | --- | --- | --- | --- | --- | --- | --- | --- | --- | --- | --- |
| O=C(/C=C/c1cccc(S(=O)(=O)Nc2ccccc2)c1)NO [Belinostat] | 261 nM | 680 nM | 1890 nM | 605 nM | 578 nM | 684 nM | 1890 nM | 1940 nM | 553 nM | 889 nM | 200 nM | 204 nM | 488 nM | 125 nM | 666 nM |
| O=C(Nc1ccncc1)C(=O)c1cn(Cc2ccc(Cl)cc2)c2ccccc12 [Indibulin] | 472 nM | 860 nM | 135 nM | 377 nM | 18.1 nM | 87.2 nM | 938 nM | 61.8 nM | 64.5 nM | 31.3 nM | 26.1 nM | 22.4 nM | 72.5 nM | 36.1 nM | 201 nM |
| Cc1[nH]c2ccccc2c1CCNCc1ccc(/C=C/C(=O)NO)cc1 [Panobinostat] | 21.6 nM | 30.8 nM | 125 nM | 39.9 nM | 14.6 nM | 32.6 nM | 26.2 nM | 88.3 nM | 107 nM | 28.6 nM | 10.2 nM | 11.1 nM | 35 nM | 4.43 nM | 23.8 nM |
| CO[C@H]1C[C@@H]2CC[C@@H](C)[C@@](O)(O2)C(=O)C(=O)N2CCCC[C@H]2C(=O)O[C@H]([C@H](C)C[C@@H]2CC[C@@H](OP(C)(C)=O)[C@H](OC)C2)CC(=O)[C@H](C)/C=C(\C)[C@@H](O)[C@@H](OC)C(=O)[C@H](C)C[C@H](C)/C=C/C=C/C=C/1C [Ridaforolimus] |  |  | 0.19 nM | 0.24 nM | 1.12 nM | 0.95 nM | 0.48 nM | 0.39 nM | > 1000 nM | 0.55 nM | 1.36 nM | 1 nM | 3.88 nM | 0.59 nM | 0.17 nM |
| COCC[n+]1c2c(n(Cc3cnccn3)c1C)C(=O)c1ccccc1C2=O [YM155] | 14.4 nM | 30.2 nM | 50.8 nM | 17.3 nM | 4.46 nM | 2.85 nM | 102 nM | 2.99 nM | 7.68 nM | 19.4 nM | 8.44 nM | 3.68 nM | 11.4 nM | 6.99 nM | 6.98 nM |
